# Assay results reported in ChEMBL document CHEMBL1148238, “Design, synthesis and cytotoxicity of 7-deoxy aryl discodermolide analogues” (Bioorg Med Chem Lett, 2004).
# pIC50: −log10 of the molar value.
# Experiments:
# Assay type in all cases: functional, cell-based
# Conditions in all cases: Homo sapiens
# [1] = tested on: SK-OV-3; assay: Cytotoxicity of compound against SKOV-3 cell line
# [2] = tested on: MCF7; assay: Cytotoxicity of compound against MCF-7 cell line
# [3] = tested on: A549; assay: Cytotoxicity of compound against A549 cell line
# [4] = tested on: MCF7; assay: Cytotoxicity of compound against MCF-7/ADR cell line
structure (smiles),measurement,setting,value
C=C/C=C\[C@H](C)[C@H](OC(N)=O)[C@@H](C)[C@H](O)[C@@H](C)C/C(C)=C\[C@H](C)[C@@H](O)[C@@H](C)/C=C\CCc1cccc(F)c1,pIC50,[1],6.40
same,pIC50,[2],6.43
same,pIC50,[3],6.19
same,pIC50,[4],6.30
C=C/C=C\[C@H](C)[C@H](OC(N)=O)[C@@H](C)[C@H](O)[C@@H](C)C/C(C)=C\[C@H](C)[C@@H](O)[C@@H](C)/C=C\CCc1ccc(Oc2ccccc2)cc1,pIC50,[1],5.00
same,pIC50,[2],5.40
same,pIC50,[3],5.00
same,pIC50,[4],5.00
C=C/C=C\[C@H](C)[C@H](OC(N)=O)[C@@H](C)[C@H](O)[C@@H](C)C/C(C)=C\[C@H](C)[C@@H](O)[C@@H](C)/C=C\CCc1cccc(O)c1C,pIC50,[1],6.57
same,pIC50,[2],6.31
same,pIC50,[3],6.04
same,pIC50,[4],6.00
C=C/C=C\[C@H](C)[C@H](OC(N)=O)[C@@H](C)[C@H](O)[C@@H](C)C/C(C)=C\[C@H](C)[C@@H](O)[C@@H](C)/C=C\CCc1cccc(Cl)c1,pIC50,[1],6.42
same,pIC50,[2],6.40
same,pIC50,[3],6.24
same,pIC50,[4],6.19
C=C/C=C\[C@H](C)[C@H](OC(N)=O)[C@@H](C)[C@H](O)[C@@H](C)C/C(C)=C\[C@H](C)[C@@H](O)[C@@H](C)/C=C\CCc1ccc(C)c(F)c1,pIC50,[1],6.00
same,pIC50,[2],6.00
same,pIC50,[3],5.40
same,pIC50,[4],5.40
C=C/C=C\[C@H](C)[C@H](OC(N)=O)[C@@H](C)[C@H](O)[C@@H](C)C/C(C)=C\[C@H](C)[C@@H](O)[C@@H](C)/C=C\CCc1cccc(OC)c1,pIC50,[1],6.43
same,pIC50,[2],6.48
same,pIC50,[3],6.22
same,pIC50,[4],6.30
C=C/C=C\[C@H](C)[C@H](OC(N)=O)[C@@H](C)[C@H](O)[C@@H](C)C/C(C)=C\[C@H](C)[C@@H](O)[C@@H](C)/C=C\CCc1cc(F)cc(F)c1,pIC50,[1],6.44
same,pIC50,[2],6.22
same,pIC50,[3],6.00
same,pIC50,[4],5.70
C=C/C=C\[C@H](C)[C@H](OC(N)=O)[C@@H](C)[C@H](O)[C@@H](C)C/C(C)=C\[C@H](C)[C@@H](O)[C@@H](C)/C=C\CCc1cccc(O)c1,pIC50,[1],7.40
same,pIC50,[2],6.89
same,pIC50,[3],6.72
same,pIC50,[4],6.41
C=C/C=C\[C@H](C)[C@H](OC(N)=O)[C@@H](C)[C@H](O)[C@@H](C)C/C(C)=C\[C@H](C)[C@@H](O)[C@@H](C)/C=C\CCc1sccc1C,pIC50,[1],6.43
same,pIC50,[2],6.43
same,pIC50,[3],6.10
same,pIC50,[4],6.21
C=C/C=C\[C@H](C)[C@H](OC(N)=O)[C@@H](C)[C@H](O)[C@@H](C)C/C(C)=C\[C@H](C)[C@@H](O)[C@@H](C)/C=C\CCc1ccccc1,pIC50,[1],6.46
same,pIC50,[2],6.32
same,pIC50,[3],6.29
same,pIC50,[4],6.25
C=C/C=C\[C@H](C)[C@H](OC(N)=O)[C@@H](C)[C@H](O)[C@@H](C)C/C(C)=C\[C@H](C)[C@@H](O)[C@@H](C)/C=C\CCc1ccc(C)c(O)c1,pIC50,[1],6.39
same,pIC50,[2],6.11
same,pIC50,[3],5.40
same,pIC50,[4],5.40
C=C/C=C\[C@H](C)[C@H](OC(N)=O)[C@@H](C)[C@H](O)[C@@H](C)C/C(C)=C\[C@H](C)[C@@H](O)[C@@H](C)/C=C\CCc1cc(O)cc(O)c1,pIC50,[1],7.40
same,pIC50,[2],6.80
same,pIC50,[3],6.51
same,pIC50,[4],< 6.00
C=C/C=C\[C@H](C)[C@H](OC(N)=O)[C@@H](C)[C@H](O)[C@@H](C)C/C(C)=C\[C@H](C)[C@@H](O)[C@@H](C)/C=C\CCc1ccsc1,pIC50,[1],6.36
same,pIC50,[2],6.07
same,pIC50,[3],5.40
same,pIC50,[4],5.40
